Test results as given in patent EP3381907A1, “SYMMETRICAL 2-AMINOPHENYL-BENZAZOLYL-5-ACETATE COMPOUNDS AND THEIR USE AS ANTI-HEPARANASE” (Leadiant Biosciences SA, priority 2017, dated 2018).

What was measured:
heparanase = biological target: T1, heparanase (Homo sapiens, UniProt Q9Y251); test: AGA*IA assay: colorimetric fondaparinux cleavage assay for heparanase inhibition (WST-1); format: biochemical; conditions: 2.5 nM heparanase, 100 µM fondaparinux, pH 5.0, 3 h at 37°C; class symbols
T1 sequence (Q9Y251 158-543 limits assumed): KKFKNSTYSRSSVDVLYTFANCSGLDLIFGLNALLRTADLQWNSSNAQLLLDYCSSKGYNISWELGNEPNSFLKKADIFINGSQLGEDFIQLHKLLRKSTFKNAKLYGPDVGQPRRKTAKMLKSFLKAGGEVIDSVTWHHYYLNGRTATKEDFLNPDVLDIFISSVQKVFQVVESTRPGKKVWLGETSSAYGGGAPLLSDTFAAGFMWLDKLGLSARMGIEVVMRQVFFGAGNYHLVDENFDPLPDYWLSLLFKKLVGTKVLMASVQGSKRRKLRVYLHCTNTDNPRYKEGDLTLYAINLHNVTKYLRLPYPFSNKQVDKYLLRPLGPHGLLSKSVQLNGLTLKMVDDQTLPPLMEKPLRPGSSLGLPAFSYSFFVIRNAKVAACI
T1 sequence (Q9Y251 36-109 limits assumed): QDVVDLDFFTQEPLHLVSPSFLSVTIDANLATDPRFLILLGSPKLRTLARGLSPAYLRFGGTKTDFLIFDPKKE
Experimental: All compounds were tested in a simple, accurate and robust microplate assay based on the cleavage of the synthetic heparin fragment, the pentasaccharide Fondaparinux (AGA*IA). This assay was originally developed by Hammond and coworkers [Hammond E, Li CP, Ferro V. Development of a colorimetric assay for heparanase activity suitable for kinetic analysis and inhibitor screening. Anal. Biochem. 396(1), 112-116 (2010)], where Fondaparinux corresponds to the methyl glycoside of the antithrombin III (ATIII)-activating pentasaccharide sequence of heparin. Fondaparinux is cleaved by heparanase to generate a reducing disaccharide, which can be quantitatively measured via a colorimetric or a fluorescence assay, the last by the fluorescent sensor polymer-H [Schiemann S, Lühn S, Alban S. Development of both colorimetric and fluorescence heparinase activity assays using fondaparinux as substrate. Anal. Biochem. 427(1), 82-89 (2012)].
The assay measures the appearance of the disaccharide product of heparanase-catalyzed fondaparinux cleavage colorimetrically using the tetrazolium salt WST-1. Assay was essentially performed as described with minor modifications. Briefly, NUNC ELISA 96-well plates were pre-treated with a solution of 4% BSA (bovin serum albumin) in phosphate-buffered saline containing 0.05% Tween 20 (PBST), for 2 h at 37°C, then washed three times with PBST, dried by tapping on paper towel and stored at -20°C. Before use, once again, the plates were washed with PBST.
Assay was carried out with 100 µl/well of assay solution containing 40 mM sodium acetate buffer (pH 5.0), 100 µM fondaparinux, 2.5 nM heparanase and serial dilutions of test compounds (tested in triplicate). Plates were sealed with adhesive tape and incubated, in the dark, for 3 h at 37°C, followed by development with 1.69 mM of the tetrazolium salt WST-1 solution in 0.1 M NaOH, for 1 h at 60°C. Then, the absorbance at 560 nm was measured through a microplate reader (Victor 3, Perkin Elmer).
Finally, the measurements were corrected by subtracting both the reagent background and the inner absorbance value of test compound.

[1] = test system: HT1080 (human fibrosarcoma); test: SRB Cell Cytotoxicity Assay, HT1080; format: cell-based; conditions: HT-1080, HT1080, 72h treatment, read-out: Concentration (µM) of test compounds at which the cell growth is inhibited by 50 %. HT1080
Source text: (§1) SRB Cell Cytotoxicity Assay is an assay based upon the quantitative staining of cellular proteins by sulforhodamine B (SRB). This assay can be used for high-throughput drug screening (Vichai & Kirkitara, Nature Protocol. 2006, 1, 112). Sulforhodamine B is an anionic aminoxanthene dye that forms an electrostatic complex with the basic amino acid residues of proteins under moderately acid conditions, which provides a sensitive linear response.
(§2) To assess a putative antiproliferative activity of the selected compounds, HT1080 (human fibrosarcoma), U87MG (human glioblastoma astrocytoma) and U2OS (human osteosarcoma) cell lines were treated for 72h, in triplicate, with increasing concentrations of heparanase inhibitors. Inhibition of cell proliferation was then measured by the classical colorimetric SRB Cell Cytotoxicity assay. Absorbance was measured by spectrophotometer at a wavelength of 510 nm and cell proliferation was determined as percent with respect to control cells (cells treated with the vehicle alone). EC50 values were then determined by GraphPad Prism.

[2] = test system: U87MG (human glioblastoma astrocytoma); test: SRB Cell Cytotoxicity Assay, U87MG; format: cell-based; conditions: U-87 MG, 72h treatment, read-out: Concentration (µM) of test compounds at which the cell growth is inhibited by 50 %. U87MG
Source text: as §1, §2

[3] = test system: U2OS (human osteosarcoma); test: SRB Cell Cytotoxicity Assay, U2OS; format: cell-based; conditions: 72h treatment, read-out: Concentration (µM) of test compounds at which the cell growth is inhibited by 50 %. U2OS
Source text: as §1, §2

| Structure (SMILES) | IC50 (heparanase) [µM] | EC50 [1] [µM] | EC50 [2] [µM] | EC50 [3] [µM] |
| --- | --- | --- | --- | --- |
| O=C(O)Cc1ccc2[nH]c(-c3ccc(NC(=O)Nc4ccc(-c5nc6cc(CC(=O)O)ccc6[nH]5)cc4F)c(F)c3)nc2c1 [Compound 4, 2,2'-(((Carbonylbis(azanediyl))bis(3-fluoro-4,1-phenylene))bis(1H-benzo[d]imidazole-2,5-diyl))diacetic acid] | 0.5 to 0.99 |  |  |  |
| O=C(O)CNC(=O)Cc1ccc2[nH]c(-c3ccc(NC(=O)Nc4ccc(-c5nc6cc(CC(=O)NCC(=O)O)ccc6[nH]5)cc4F)c(F)c3)nc2c1 [Compound 7, 2,2'-((2,2'-(((carbonylbis(azanediyl))bis(3-fluoro-4,1-phenylene))bis(1H-benzo[d]imidazole-2,5-diyl))bis(acetyl))bis(azanediyl))diacetic acid] | 1 to 20 |  |  |  |
| O=C(Cc1ccc2[nH]c(-c3ccc(NC(=O)Nc4ccc(-c5nc6cc(CC(=O)N[C@@H](Cc7ccccc7)C(=O)O)ccc6[nH]5)cc4F)c(F)c3)nc2c1)N[C@@H](Cc1ccccc1)C(=O)O [Compound 8, (2S,2'S)-2,2'-((2,2'-(((Carbonylbis(azanediyl))bis(3-fluoro-4,1-phenylene))bis(1H-benzo[d]imidazole-2,5-diyl))bis(acetyl))bis(azanediyl))bis(3-phenylpropanoic acid)] | 0.5 to 0.99 |  |  |  |
| O=C(Cc1ccc2[nH]c(-c3ccc(NC(=O)Nc4ccc(-c5nc6cc(CC(=O)NCB(O)O)ccc6[nH]5)cc4F)c(F)c3)nc2c1)NCB(O)O [Compound 9, (((2,2'-(((Carbonylbis(azanediyl))bis(3-fluoro-4,1-phenylene))bis(1H-benzo[d]imidazole-2,5-diyl))bis(acetyl))bis(azanediyl))bis(methylene))diboronic acid] | 1 to 20 |  |  |  |
| O=C(O)Cc1ccc2[nH]c(-c3ccc(NC(=S)Nc4ccc(-c5nc6cc(CC(=O)O)ccc6[nH]5)cc4F)c(F)c3)nc2c1 [Compound 12, 2,2'-(((Thiocarbonylbis(azanediyl))bis(3-fluoro-4,1-phenylene))bis(1H-benzo[d]imidazole-2,5-diyl))diacetic acid] | 0.5 to 0.99 |  |  |  |
| O=C(O)Cc1ccc2oc(-c3ccc(NC(=O)Nc4ccc(-c5nc6cc(CC(=O)O)ccc6o5)cc4)cc3)nc2c1 [Compound 19, 2,2'-(((Carbonylbis(azanediyl))bis(4,1-phenylene))bis(benzo[d]oxazole-2,5-diyl))diacetic acid] | 1 to 20 | > 10 | > 10 | > 10 |
| O=C(Cc1ccc2oc(-c3ccc(NC(=O)Nc4ccc(-c5nc6cc(CC(=O)N[C@@H](Cc7ccccc7)C(=O)O)ccc6o5)cc4F)c(F)c3)nc2c1)N[C@@H](Cc1ccccc1)C(=O)O [Compound 26, (2S,2'S)-2,2'-((2,2'-(((Carbonylbis(azanediyl))bis(3-fluoro-4,1-phenylene))bis(benzo[d]oxazole-2,5-diyl))bis(acetyl))bis(azanediyl))bis(3-phenylpropanoic acid)] | 0.5 to 0.99 | > 10 | > 10 | > 10 |
| CC(C)CCNC(=O)Cc1ccc2oc(-c3ccc(NC(=O)Nc4ccc(-c5nc6cc(CC(=O)NCCC(C)C)ccc6o5)cc4F)c(F)c3)nc2c1 [Compound 28, 2,2'-(((Carbonylbis(azanediyl))bis(3-fluoro-4,1-phenylene))bis(benzo[d]oxazole-2,5-diyl))bis(N-isopentylacetamide)] | 1 to 20 |  |  |  |
| CC(C)C[C@H](NC(=O)Cc1ccc2oc(-c3ccc(NC(=O)Nc4ccc(-c5nc6cc(CC(=O)N[C@@H](CC(C)C)B(O)O)ccc6o5)cc4F)c(F)c3)nc2c1)B(O)O [Compound 31, (1R,1'R)-(((2,2'-(((Carbonylbis(azanediyl))bis(3-fluoro-4,1-phenylene))bis(benzo[d]oxazole-2,5-diyl))bis(acetyl))bis(azanediyl))bis(3-methylbutane-1,1-diyl))diboronic acid] | 1 to 20 |  |  |  |
| O=C(O)Cc1ccc2oc(-c3ccc(NC(=S)Nc4ccc(-c5nc6cc(CC(=O)O)ccc6o5)cc4)cc3)nc2c1 [Compound 33, 2,2'-(((thiocarbonylbis(azanediyl))bis(4,1-phenylene))bis(benzo[d]oxazole-2,5-diyl))diacetic acid] | 1 to 20 |  |  |  |
| O=C(O)Cc1ccc2oc(-c3ccc(NC(=S)Nc4ccc(-c5nc6cc(CC(=O)O)ccc6o5)cc4F)c(F)c3)nc2c1 [Compound 36, 2,2'-(((Thiocarbonylbis(azanediyl))bis(3-fluoro-4,1-phenylene))bis(benzo[d]oxazole-2,5-diyl))diacetic acid] | 1 to 20 |  |  |  |
| O=C(O)CNC(=O)Cc1ccc2oc(-c3ccc(NC(=S)Nc4ccc(-c5nc6cc(CC(=O)NCC(=O)O)ccc6o5)cc4F)c(F)c3)nc2c1 [Compound 38, 2,2'-((2,2'-(((Thiocarbonylbis(azanediyl))bis(3-fluoro-4,1-phenylene))bis(benzo[d]oxazole-2,5-diyl))bis(acetyl))bis(azanediyl))diacetic acid] | 0.05 to 0.49 | > 10 | > 10 | > 10 |
| N=C(Nc1ccc(-c2nc3cc(CC(=O)O)ccc3o2)cc1)Nc1ccc(-c2nc3cc(CC(=O)O)ccc3o2)cc1 [Compound 40, 2,2'-((((Iminomethylene)bis(azanediyl))bis(4,1-phenylene))bis(benzo[d]oxazole-2,5-diyl))diacetic acid] | 1 to 20 |  |  |  |
